Drawing on US20090170195A1, “CURCUMIN-HYALURONAN COMPOUNDS” (KENT STATE UNIVERSITY, priority 2007, published 2009), this text covers IC50 for 1 molecule.

One assay deals with MDAMB231. Briefly: MTS cytotoxicity assay, MDAMB231. Format: cell-based. Particulars: Homo sapiens, MDA-MB-231; MDAMB231, MTS cell viability. As for the experimental part:
(§1) Cytotoxicity effect of dissociable curcumin-hyaluronan complex, the curcumin-hyaluronan complex having a substantially non-acid labile covalent bond and free curcumin was detected by MTS (3-(4,5-dimethylthiazol-2yl)-5-(3-[…]-2-(4-sulfophenyl)-2H-tetrazolium) assay. The formazan color intensity was measured directly from 96 well plates in terms of absorbance at 490 nm and 630 nm using a 96-well multi-scanner (MRX Revelation; Dynex Technologies). For calculating cell viability (%) all the appropriate correction was made and the IC50 values were determined from sigmoidal fitting of the data. FIGS. 3-5 represent confocal microscopy images representing the uptake of curcumin and the dissociable complex into the C-13, NIH3T3 and RA-8001 cell lines.

For another assay, the system named is C-13. As to the kind of experiment: MTS cytotoxicity assay, C-13. The assay is classed as cell-based. Particulars: Homo sapiens, C13; C-13, MTS cell viability. As for the experimental part: as §1
In general terms: Tetrazolium dyes change colour on reduction, which living cells bring about.

The subject of the next assay is MCF7 (Dox resistance). As to the kind of experiment: MTS cytotoxicity assay, MCF7 (Dox resistance). Format: cell-based. Particulars: Homo sapiens, MTS cell viability. As for the experimental part:
as §1

Another assay relates to NIH3T3. As to the kind of experiment: MTS cytotoxicity assay, NIH3T3. The assay is classed as cell-based. Particulars: Mus musculus; NIH3T3, MTS cell viability. As for the experimental part:
as §1

In a further assay the test system is RA-8001. Briefly: MTS cytotoxicity assay, RA-8001. The assay is classed as cell-based. Particulars: Homo sapiens; RA-8001, MTS cell viability. As for the experimental part:
as §1

The test system of a further assay is MCF7. Particulars: from Simon et al., Cancer Lett., (1998), 129, 111; cited from earlier work.

What is called IC50 is the concentration that gives 50% inhibition. Regarding `COc1cc(/C=C/C(=O)CC(=O)/C=C/c2ccc(O)c(OC)c2)ccc1O` [Curcumin], the IC50 is 27.5 ± 3.36 µM in the assay on MDAMB231; 22.2 µM in the assay on C-13; 27.4 ± 0.892 µM in the assay with MCF7 (Dox resistance); 23.9 ± 3.19 µM in the assay with NIH3T3; 11.1 ± 2.3 µM in the assay with RA-8001; 15 µM with MCF7.
